Columns and labels:
Alternaria solani = Alternaria solani / tomato / leaf disc (early blight); type: in vivo; settings: foliar, tomato leaf disks, sprayed 2 days before inoculation, compared to untreated control
Description: Example B1: Alternaria solani/Tomato/Leaf Disc (Early Blight) Tomato leaf disks cv. Baby are placed on agar in multiwell plates (24-well format) and sprayed with the formulated test compound diluted in water. The leaf disks are inoculated with a spore suspension of the fungus 2 days after application. The inoculated leaf disks are incubated at 23° C./21° C.

[1] = system: Botryotinia fuckeliana (Botrytis cinerea); assay: Botryotinia fuckeliana (Botrytis cinerea) / liquid culture (gray mould); type: cell-based; settings: growth inhibition photometrically 3-4 days after application, read-out: control of Botryotinia fuckeliana
Method in brief: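 Conidia suspended in Vogels broth and added to compound dispensed from DMSO. Incubated at 24°C, with growth inhibition measured photometrically 3–4 days later.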

[2] = system: Glomerella lagenarium (Colletotrichum lagenarium); assay: Glomerella lagenarium (Colletotrichum lagenarium) / liquid culture (anthracnose); type: cell-based; settings: Colletotrichum orbiculare, growth inhibition photometrically 3-4 days after application, read-out: control of Glomerella lagenarium
Method in brief: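 Cryo-stored conidia in potato dextrose broth were added to test compound in DMSO. Plates were incubated at 24° C, and growth inhibition was read photometrically 3-4 days after application.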

[3] = system: Blumeria graminis f. sp. tritici (Erysiphe graminis f. sp. tritici); assay: Blumeria graminis f. sp. tritici / wheat / leaf disc preventative (powdery mildew on wheat); type: in vivo; settings: foliar, wheat leaf segments, inoculated 1 day after application
Method in brief: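 Wheat cv. Kanzler leaf segments on agar sprayed with formulated compound in water, inoculated 1 day later by shaking mildew-infected plants overhead. Incubated at 20° C, 60% rh, 24 h dark then 12 h light/12 h dark. Percent disease control versus untreated scored 6-8 days after application.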

[4] = system: Monographella nivalis (Microdochium nivale); assay: Monographella nivalis (Microdochium nivale) / liquid culture (foot rot cereals); type: cell-based; settings: growth inhibition photometrically 4-5 days after application, read-out: control of Monographella nivalis
Method in brief: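 Fungal conidia mixed directly into potato dextrose broth and added to test compound delivered in DMSO. Incubated at 24° C; growth inhibition read photometrically 4-5 days after application.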

[5] = system: Puccinia recondita f. sp. tritici; assay: Puccinia recondita f. sp. tritici / wheat / leaf disc curative (brown rust); type: in vivo; settings: 200 ppm, wheat leaf segments, applied 1 day after inoculation
Description: Example B11: Puccinia recondita f. Sp. Tritici/Wheat/Leaf Disc Curative (Brown Rust)
Wheat leaf segments cv. Kanzler are placed on agar in multiwell plates (24-well format). The leaf segments are inoculated with a spore suspension of the fungus. Plates are stored in darkness at 19° C. and 75% rh. The formulated test compound diluted in water is applied 1 day after inoculation. The leaf segments are incubated at 19° C. and 75% rh under a light regime of 12 h light/12 h darkness in a climate cabinet and the activity of a compound is assessed as percent disease control compared to untreated when an appropriate level of disease damage appears in untreated check leaf segments (6-8 days after application).

Pyrenophora teres = Pyrenophora teres / barley / leaf disc preventative (net blotch); type: in vivo; settings: foliar, barley leaf segments, inoculated 2 days after application
Method in brief: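 Barley cv. Hasso leaf segments on agar sprayed with formulated compound, inoculated with spores 2 days later. Incubated at 20 °C, 65% rh, 12 h light/dark; disease control versus untreated assessed 5–7 days after application.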

[6] = system: Mycosphaerella graminicola (Septoria tritici); assay: Mycosphaerella graminicola (Septoria tritici) / liquid culture (Septoria blotch); type: cell-based; settings: Zymoseptoria tritici, growth inhibition photometrically 4-5 days after application, read-out: control of Mycosphaerella graminicola
Method in brief: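 Conidia suspended in potato dextrose broth and added to test compound supplied in DMSO in 96-well plates. Incubated at 24 °C, and growth inhibition read photometrically 4-5 days after application.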

Fusarium culmorum [7] = assay: microbe, parasite or virus in culture; type: cell-based; settings: read-out: control of Fusarium culmorum
Fusarium culmorum [8] = assay: whole plant or invertebrate; type: in vivo; settings: in Triticum aestivum, read-out: control of Fusarium culmorum
[9] = system: Gibberella zeae (Fusarium graminearum); assay: whole plant or invertebrate; type: in vivo; settings: in Triticum aestivum, read-out: control of Gibberella zeae
[10] = system: Phaeosphaeria nodorum (Septoria nodorum); assay: Phaeosphaeria nodorum (Septoria nodorum) / wheat / leaf disc preventative (glume blotch); type: in vivo; settings: Parastagonospora nodorum, foliar, wheat leaf segments, inoculated 2 days after application
Method in brief: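 Wheat cv. Kanzler leaf segments on agar sprayed preventatively with formulated compound diluted in water, then inoculated with spore suspension 2 days after application. Incubated at 20° C, 75% rh, 12 h light/12 h dark; percent disease control versus untreated scored 5-7 days after application.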

[11] = system: Mycosphaerella arachidis (Cercospora arachidicola); assay: Mycosphaerella arachidis (Cercospora arachidicola) / liquid culture (early leaf spot); type: cell-based; settings: growth inhibition photometrically 4-5 days after application, read-out: control of Mycosphaerella arachidis
Method in brief: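 Spores taken straight from cryostorage are suspended in potato dextrose broth and added to test compound in DMSO. Plates are incubated at 24° C. Growth inhibition is scored photometrically 4-5 days after application.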

[12] = system: Magnaporthe grisea (Pyricularia Oryzae); assay: whole plant or invertebrate; type: in vivo; settings: foliar, read-out: control of Magnaporthe grisea
Sclerotinia sclerotiorum = Sclerotinia sclerotiorum / liquid culture (cottony rot); type: cell-based; settings: growth inhibition photometrically 3-4 days after application, read-out: control of Sclerotinia sclerotiorum
Method in brief: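 Mycelial fragments from fresh liquid culture in potato dextrose broth added to test compound in DMSO. Incubation at 24° C; growth inhibition read photometrically 3-4 days after application.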

## Cc1ccc(C(C)(CNC(=O)c2cc(-c3ccc(F)cc3F)on2)c2cnn(C)c2)nc1 (centres unmarked) [Compound P-19, 5-(2,4-difluorophenyl)-N-[2-(1-methylpyrazol-4-yl)-2-(5-methyl-2-pyridyl)propyl] isoxazole-3-carboxamide]
Alternaria solani
  pest or weed control at 200 ppm: ≥ 80%
[1]
  inhibition of growth at 20 ppm: ≥ 80%
[2]
  inhibition of growth at 20 ppm: ≥ 80%
[3]
  pest or weed control at 200 ppm: ≥ 80%
[4]
  inhibition of growth at 20 ppm: ≥ 80%
[5]
  control of Puccinia recondita f. sp. tritici: at least 80%
Pyrenophora teres
  pest or weed control at 200 ppm: ≥ 80%
[6]
  inhibition of growth at 20 ppm: ≥ 80%

## Cn1cc(C(C)(CNC(=O)c2cc(-c3ccc(F)cc3F)no2)c2cccc(Cl)n2)cn1 (centres unmarked) [Compound P-42, N-[2-(6-chloro-2-pyridyl)-2-(1-methylpyrazol-4-yl)propyl]-3-(2,4-difluorophenyl) isoxazole-5-carboxamide]
[1]
  inhibition of growth at 20 ppm: ≥ 80%
Fusarium culmorum [7]
  inhibition of growth at 20 ppm: ≥ 80%
Fusarium culmorum [8]
  pest or weed control at 200 ppm: ≥ 80%
[9]
  pest or weed control at 200 ppm: ≥ 80%
[10]
  pest or weed control at 200 ppm: ≥ 80%
[4]
  inhibition of growth at 20 ppm: ≥ 80%
[11]
  inhibition of growth at 20 ppm: ≥ 80%
[12]
  pest or weed control at 200 ppm: ≥ 80%
Pyrenophora teres
  pest or weed control at 200 ppm: ≥ 80%
Sclerotinia sclerotiorum
  inhibition of growth at 20 ppm: ≥ 80%
[6]
  inhibition of growth at 20 ppm: ≥ 80%
other
  melting point: 126 to 128 °C
